In US10562898B2, “Substituted benzenesulfonamides as inhibitors of alpha-4 beta-7 integrin activity” (EA PHARMA CO., LTD., priority 2016, dated 2020) one finds IC50 data, which are given here for 24 molecules.

Usually IC50 stands for the concentration needed to halve the response being measured.

The target in the test is T1, α4β7 integrin (Homo sapiens, UniProt P13612+P26010).
T1 construct: a cell line RPMI-8866, which is known to express α4β7 integrin; endogenous in cells; host or cells: RPMI-8866 (human B cell line)
T1 sequence (P13612 34-1032): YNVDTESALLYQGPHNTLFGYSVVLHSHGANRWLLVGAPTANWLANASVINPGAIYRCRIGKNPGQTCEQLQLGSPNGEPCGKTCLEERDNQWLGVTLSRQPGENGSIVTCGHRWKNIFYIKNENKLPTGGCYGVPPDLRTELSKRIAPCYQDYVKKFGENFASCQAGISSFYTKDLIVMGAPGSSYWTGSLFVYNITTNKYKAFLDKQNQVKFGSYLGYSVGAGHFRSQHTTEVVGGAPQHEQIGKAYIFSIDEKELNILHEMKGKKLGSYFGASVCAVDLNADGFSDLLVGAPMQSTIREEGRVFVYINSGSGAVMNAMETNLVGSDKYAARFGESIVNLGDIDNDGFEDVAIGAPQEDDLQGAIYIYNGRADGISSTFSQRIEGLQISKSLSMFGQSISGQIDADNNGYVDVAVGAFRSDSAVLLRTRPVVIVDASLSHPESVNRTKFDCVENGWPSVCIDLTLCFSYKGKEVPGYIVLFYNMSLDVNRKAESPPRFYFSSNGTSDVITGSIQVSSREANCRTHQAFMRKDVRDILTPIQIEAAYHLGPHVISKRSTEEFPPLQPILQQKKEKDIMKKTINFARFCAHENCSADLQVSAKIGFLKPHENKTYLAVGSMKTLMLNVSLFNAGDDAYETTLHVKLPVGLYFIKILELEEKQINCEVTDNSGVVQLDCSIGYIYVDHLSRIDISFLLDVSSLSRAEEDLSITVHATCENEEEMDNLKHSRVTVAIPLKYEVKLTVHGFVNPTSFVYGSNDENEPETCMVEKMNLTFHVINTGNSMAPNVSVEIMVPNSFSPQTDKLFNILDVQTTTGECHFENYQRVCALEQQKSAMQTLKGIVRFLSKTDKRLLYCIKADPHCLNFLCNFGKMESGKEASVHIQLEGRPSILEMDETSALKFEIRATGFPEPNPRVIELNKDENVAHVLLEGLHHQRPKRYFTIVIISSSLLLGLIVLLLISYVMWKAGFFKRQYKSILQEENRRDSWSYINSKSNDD
T1 sequence (P26010 20-798): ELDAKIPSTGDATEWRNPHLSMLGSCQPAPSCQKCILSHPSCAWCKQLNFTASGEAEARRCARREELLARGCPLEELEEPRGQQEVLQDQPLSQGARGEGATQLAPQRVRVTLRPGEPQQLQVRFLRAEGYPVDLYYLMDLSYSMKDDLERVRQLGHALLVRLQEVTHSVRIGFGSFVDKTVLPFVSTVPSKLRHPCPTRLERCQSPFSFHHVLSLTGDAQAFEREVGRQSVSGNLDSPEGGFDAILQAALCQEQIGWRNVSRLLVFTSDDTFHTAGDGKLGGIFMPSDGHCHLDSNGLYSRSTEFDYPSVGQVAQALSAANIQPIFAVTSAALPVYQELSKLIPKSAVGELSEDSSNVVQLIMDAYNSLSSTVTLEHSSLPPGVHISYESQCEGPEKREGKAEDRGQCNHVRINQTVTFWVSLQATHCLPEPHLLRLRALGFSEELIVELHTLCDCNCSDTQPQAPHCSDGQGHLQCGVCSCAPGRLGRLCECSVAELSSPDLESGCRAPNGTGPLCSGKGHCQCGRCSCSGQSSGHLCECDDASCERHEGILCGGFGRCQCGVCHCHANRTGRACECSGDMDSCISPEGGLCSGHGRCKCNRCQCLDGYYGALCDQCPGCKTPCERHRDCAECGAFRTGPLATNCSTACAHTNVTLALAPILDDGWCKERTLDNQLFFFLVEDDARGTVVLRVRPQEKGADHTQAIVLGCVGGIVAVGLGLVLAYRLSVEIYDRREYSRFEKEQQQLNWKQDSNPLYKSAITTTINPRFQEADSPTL
Put plainly: MAdCAM-1/α4β7 integrin binding inhibitory activity evaluation test in presence of serum. In kind it is cell-based. As to conditions: RPMI-8866 cells, recombinant mouse MAdCAM-1/Fc, 50% human serum; read-out: α4β7 Serum Added IC50. The protocol:
(3) MAdCAM-1/α4β7 Integrin Binding Inhibitory Activity Evaluation Test in Presence of Serum (1)
Each test substance was measured in terms of an ability to inhibit the MAdCAM-1 binding of a human B cell line, namely, a cell line RPMI-8866, which is known to express α4β7 integrin.
A solution of recombinant mouse MAdCAM-1/Fc (R&D Systems, Inc.) (1 μg/mL) diluted with a buffer A (carbonate buffer, pH 9.6) was added in an amount of 50 μL/well to a 96-well microtiter plate, followed by incubation at 4° C. overnight. After the plate was washed with PBS once, 150 μL/well of Block Ace (Snow Brand Milk Products Co., Ltd.) was added, followed by incubation at room temperature for 2 hours. After removal, the plate was washed with PBS once.
Then, 100 μL of the RPMI-8866 cells (2×10^6 cells/mL) and 100 of the test substance at each of various concentrations diluted with a binding buffer (DMEM containing 40 mM HEPES, 0.2% BSA, and 4 mM MnCl2) were added to the plate coated with the MAdCAM-1/Fc (5×10^5 cells/well) such that 50% human serum was contained at the final concentration. Then, incubation was allowed to proceed at 30° C. for 15 to 60 minutes. After the cells were bound to the wells, the plate was washed with PBS to remove unbound cells. A buffer C (PBS containing 1.5% Triton X-100) was added in an amount 50 μL/well to the plate to lyse the bound RPMI-8866 cells. After 30 μL of a substrate buffer (Promega, CytoTox 96 Non-Radioactive Cytotoxicity Assay) was added to 30 μL of the cell lysate, a reaction was allowed to proceed at room temperature in the dark for 30 minutes. After 30 μL of a stop solution (Promega, CytoTox 96 Non-Radioactive Cytotoxicity Assay) was added to each, and then an absorbance at 490 nm was measured using a plate reader. The absorbance obtained here represents a detection result of an activity of lactate dehydrogenase (LDH) eluted in the supernatant of each well, that is, the absorbance is proportional to the number of RPMI-8866 cells bound to the MAdCAM-1 and thus remaining on the plate. The test was performed in duplicate. Provided that the absorbance of the well containing no test substance was 100%, a cell binding rate with the test substance at each of the various concentrations was figured out, and a concentration IC50 which brought about 50% binding inhibition was calculated.

For the molecule `Cn1c(=O)n(-c2ccc(C[C@H](NC(=O)c3cc(F)c(NS(=O)(=O)c4ccc(NC(=O)C(C)(C)C)cc4)cc3F)C(=O)O)cc2)c(=O)c2ccncc21` [Compound A1, (2S)-2-[[4-[[4-(2,2-dimethylpropanoylamino)phenyl]sulfonylamino]-2,5-difluoro-benzoyl]amino]-3-[4-(1-methyl-2,4-dioxo-pyrido[3,4-d]pyrimidin-3-yl)phenyl]propanoic acid], the IC50 is 10 nM.

In the case of `CC(=O)Nc1ccc(S(=O)(=O)Nc2cc(F)c(C(=O)N[C@@H](Cc3ccc(-n4c(=O)c5ccncc5n(C)c4=O)cc3)C(=O)O)cc2F)cc1` [Compound A2], the IC50 worked out at 36 nM.

Take `CCC(CC)C(=O)Nc1ccc(S(=O)(=O)Nc2cc(F)c(C(=O)N[C@@H](Cc3ccc(-n4c(=O)c5ccncc5n(C)c4=O)cc3)C(=O)O)cc2F)cc1` [Compound A3]: the IC50 came to 10 nM.

Take `CCC(CC)C(=O)Nc1ccc(S(=O)(=O)Nc2cc(F)c(C(=O)N[C@@H](Cc3ccc(-n4c(=O)c(C)c(C)n(C)c4=O)cc3)C(=O)O)cc2F)cc1` [Compound A4]: the IC50 is 16 nM.

Consider `Cn1c(=O)n(-c2ccc(C[C@H](NC(=O)c3cc(F)c(NS(=O)(=O)c4ccc(NC(=O)NC(C)(C)C)cc4)cc3F)C(=O)O)cc2)c(=O)c2ccncc21` [Compound A5], for which the IC50 worked out at 70 nM.

On to `Cn1c(=O)n(-c2ccc(C[C@H](NC(=O)c3cc(F)c(NS(=O)(=O)c4ccc(NC(=O)C5CCNCC5)cc4)cc3F)C(=O)O)cc2)c(=O)c2ccncc21` [Compound A6, (2S)-2-[[2,5-difluoro-4-[[4-(piperidine-4-carbonylamino)phenyl]sulfonylamino]benzoyl]amino]-3-[4-(1-methyl-2,4-dioxo-pyrido[3,4-d]pyrimidin-3-yl)phenyl]propanoic acid], for which the IC50 worked out at 14 nM.

Take `Cn1c(=O)n(-c2ccc(C[C@H](NC(=O)c3cc(F)c(NS(=O)(=O)c4ccc(NC(=O)c5ccncc5)cc4)cc3F)C(=O)O)cc2)c(=O)c2ccncc21` [Compound A7]: the IC50 was determined as 28 nM.

Turning to `Cc1c(C)n(C)c(=O)n(-c2ccc(C[C@H](NC(=O)c3cc(F)c(NS(=O)(=O)c4ccc(NC(=O)C(C)(C)C)cc4)cc3F)C(=O)O)cc2)c1=O` [Compound A8], the IC50 came out at 3.7 nM.

In the case of `Cn1c(=O)n(-c2ccc(C[C@H](NC(=O)c3cc(F)c(NS(=O)(=O)c4ccc(NC(=O)C(C)(C)C)s4)cc3F)C(=O)O)cc2)c(=O)c2ccncc21` [Compound A9], the IC50 came out at 4.5 nM.

For the molecule `Cc1c(C)n(C)c(=O)n(-c2ccc(C[C@H](NC(=O)c3cc(F)c(NS(=O)(=O)c4ccc(NC(=O)C(C)(C)C)s4)cc3F)C(=O)O)cc2)c1=O` [Compound A10], the IC50 came to 10 nM.

Turning to `Cc1c(C)n(C)c(=O)n(-c2ccc(C[C@H](NC(=O)c3cc(F)c(NS(=O)(=O)c4cc(NC(=O)C(C)(C)C)cs4)cc3F)C(=O)O)cc2)c1=O` [Compound A11], the IC50 was 38 nM.

`Cn1c(=O)n(-c2ccc(C[C@H](NC(=O)c3cc(F)c(NS(=O)(=O)c4ccc(NC(=O)C(C)(C)C)c(F)c4)cc3F)C(=O)O)cc2)c(=O)c2ccncc21` [Compound A12]: the IC50 was 61 nM.

Regarding `Cn1c(=O)n(-c2ccc(C[C@H](NC(=O)c3cc(F)c(NS(=O)(=O)c4ccc(NC(=O)C5CCOCC5)cc4)cc3F)C(=O)O)cc2)c(=O)c2ccncc21` [Compound A14], the IC50 stood at 12 nM.

In the case of `Cc1c(C)n(C)c(=O)n(-c2ccc(C[C@H](NC(=O)c3cc(F)c(NS(=O)(=O)c4ccc(NC(=O)C5CCOCC5)cc4)cc3F)C(=O)O)cc2)c1=O` [Compound A15], the IC50 was 14 nM.

With `COC1(C(=O)Nc2ccc(S(=O)(=O)Nc3cc(F)c(C(=O)N[C@@H](Cc4ccc(-n5c(=O)c6ccncc6n(C)c5=O)cc4)C(=O)O)cc3F)cc2)CC1` [Compound A16], the IC50 is 44 nM.

For `COC1(C(=O)Nc2ccc(S(=O)(=O)Nc3cc(F)c(C(=O)N[C@@H](Cc4ccc(-n5c(=O)c(C)c(C)n(C)c5=O)cc4)C(=O)O)cc3F)cc2)CC1` [Compound A17], the IC50 was found to be 67 nM.

For the molecule `Cn1c(=O)n(-c2ccc(C[C@H](NC(=O)c3cc(F)c(NS(=O)(=O)c4ccc(NC(=O)C(C)(C)CO)cc4)cc3F)C(=O)O)cc2)c(=O)c2ccncc21` [Compound A18], the IC50 amounted to 9 nM.

As to `Cc1c(C)n(C)c(=O)n(-c2ccc(C[C@H](NC(=O)c3cc(F)c(NS(=O)(=O)c4ccc(NC(=O)C(C)(C)C)cn4)cc3F)C(=O)O)cc2)c1=O` [Compound A19], the IC50 was determined as 4.6 nM.

For the molecule `Cc1c(C)n(C)c(=O)n(-c2ccc(C[C@H](NC(=O)c3cc(F)c(NS(=O)(=O)c4ccc(NC(=O)C5(C(F)(F)F)CC5)cc4)cc3F)C(=O)O)cc2)c1=O` [Compound A20], the IC50 worked out at 17 nM.

In the case of `Cc1c(C)n(C)c(=O)n(-c2ccc(C[C@H](NC(=O)c3cc(F)c(NS(=O)(=O)c4ccc(NC(=O)C(C)(C)CO)cc4)cc3F)C(=O)O)cc2)c1=O` [Compound A21], the IC50 is 7.2 nM.

Turning to `Cc1c(C)n(C)c(=O)n(-c2ccc(C[C@H](NC(=O)c3cc(F)c(NS(=O)(=O)c4ccc(NC(=O)C5(O)CC5)cc4)cc3F)C(=O)O)cc2)c1=O` [Compound A22], the IC50 was 25 nM.

For `Cn1c(=O)n(-c2ccc(C[C@H](NC(=O)c3cc(F)c(NS(=O)(=O)c4ccc(NC(=O)C5(O)CC5)cc4)cc3F)C(=O)O)cc2)c(=O)c2ccncc21` [Compound A23], the IC50 was determined as 32 nM.

For the molecule `Cn1c(=O)n(-c2ccc(C[C@H](NC(=O)c3cc(F)c(NS(=O)(=O)c4ccc(NC(=O)C5(C(F)(F)F)CC5)cc4)cc3F)C(=O)O)cc2)c(=O)c2ccncc21` [Compound A24], the IC50 worked out at 15 nM.

Consider `Cc1c(C)n(C)c(=O)n(-c2ccc(C[C@H](NC(=O)c3cc(F)c(NS(=O)(=O)c4ccc(NC(=O)C(C)(C)C)nc4)cc3F)C(=O)O)cc2)c1=O` [Compound A25], for which the IC50 was determined as 48 nM.
